Here are results for seven molecules from US8476270B2, “Dihydropyrido[4,3-b]pyrazine-3-ones as modulators of toll-like receptors” (Gilead Sciences, Inc., priority 2009, dated 2013).

Molecules are shown by their SMILES.

This assay has as its system human Peripheral Blood Mononuclear Cell (PMBC). The experiment in a line: PBMC assay: cytokine (IFN-alpha) stimulation at 24 hours. The format is cell-based. The following applies: 24 hours incubation, IFN-alpha in supernatant (Luminex). On the procedure:
PBMC Assay Protocol Assays were conducted to determine cytokine stimulation at 24 hours from human Peripheral Blood Mononuclear Cell (PMBC) using the compounds of the present invention. The assays were run in duplicate, with 8-point, half-log dilution curves. The compounds of the present invention were diluted from 10 mM DMSO solution. Cell supernatants are assayed directly for IFNa and 1:10 dilution for TNFa. The assays were performed in a similar fashion as described in Bioorg. Med. Chem. Lett. 16, 4559, (2006). Specifically, cryo-preserved PBMCs were thawed and seeded 96 well plates with 750,000 cells/well in 190 μL/well cell media. The PBMCs were then incubated for 1 hour at 37° C. at 5% CO2. Then, the compounds of the present invention were added in 10 μL cell media at 8 point, half-log dilution titration. The plates were incubated at 37° C. and 5% CO2 for 24 hours and then spinned at 1200 rpm for 10 min, which was followed by collecting supernatant and storing the same at −80° C. Cytokine secretion was assayed with Luminex and Upstate multi-plex kits, using a Luminex analysis instrument. IFN ECmax value for a compound was the concentration at which the compound stimulated maximum IFN-a production as determined using the assay method above.
As to `CCCCOc1cc2c(c(N)n1)NC(=O)CN2Cc1cccc(CN2CCCC2)c1` [A], the “MEC = minimum concentration for induction of IFN-alpha = 3-fold over background” value is given as “d (d: 100 nM-1000 nM)”.

Consider `CCCCOc1cc2c(c(N)n1)NC(=O)CN2Cc1ccc(CN2CCCC2)cc1` [B], for which the “MEC = minimum concentration for induction of IFN-alpha = 3-fold over background” value was “c (c: 10 nM-99 nM)”.

For `COCCOc1cc2c(c(N)n1)NC(=O)CN2Cc1ccc(CN2CCCC2)cc1` [C], the “MEC = minimum concentration for induction of IFN-alpha = 3-fold over background” value is listed as “a (a: = 1 nM)”.

In the case of `COCCOc1nc(N)c2c(c1Cl)N(Cc1ccc(CN3CCCC3)cc1)CC(=O)N2` [D], the “MEC = minimum concentration for induction of IFN-alpha = 3-fold over background” value was “e (e: = 1000 nM)”.

As to `CCCCOc1cc2c([nH]c(=O)c(=O)n2Cc2ccc(CN3CCCC3)cc2)c(N)n1` [E], the “MEC = minimum concentration for induction of IFN-alpha = 3-fold over background” value is reported as “b (b: 1 nM-9 nM)”.

For the molecule `CCCCOc1cc2c([nH]c(=O)c(=O)n2Cc2ccc(-c3cccc(CN4CCCC4)c3)cc2)c(N)n1` [F], the “MEC = minimum concentration for induction of IFN-alpha = 3-fold over background” value was “c (c: 10 nM-99 nM)”.

Turning to `CCCCOc1cc2c([nH]c(=O)c(=O)n2Cc2ccc(-c3ccc(CN4CCCC4)cc3)cc2)c(N)n1` [G], the “MEC = minimum concentration for induction of IFN-alpha = 3-fold over background” value is given as “c (c: 10 nM-99 nM)”.
